Among the data in PubChem BioAssay (NCI) are TGI and GI50 values, retold here.

SMILES strings stand for the structures. Where “and” joins values, the source holds several entries; their conditions need not be identical. Identical values can stand only once.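 The compound was tested at five concentrations on cells cultured in 96-well plates, with a 48-hour exposure period. GI50 = concentration required for 50% inhibition of growth. Definition used: TGI = concentration required for complete inhibition of growth.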

Among the test systems are SNB-19 CNS; SK-OV-3 ovarian; SF-268 CNS; SK-MEL-28 melanoma; RPMI-8226 leukemia; SF-539 CNS; A498 renal; SNB-75 CNS; HT29 colon; UACC-257 melanoma; HCT-15 colon; OVCAR-4 ovarian; K-562 leukemia.
Common to all, as to assay: growth of human tumour cells (NCI), 48 h

On to `Cc1ccc(Nc2nc(=O)c3c([nH]c4ccccc43)s2)cc1`, for which the TGI with SNB-19 CNS is > 100 µM; in the assay with SK-OV-3 ovarian, > 100 µM; in the assay on SF-268 CNS, 35.6 µM; in the assay with SK-MEL-28 melanoma, > 100 µM; with RPMI-8226 leukemia, 23.6 µM; in the assay with SF-539 CNS, 31.6 µM. The TGI in the assay on A498 renal was 37.4 µM; with SNB-75 CNS, 31.6 µM; with HT29 colon, 23.2 µM; in the assay on UACC-257 melanoma it was 31.5 µM; with HCT-15 colon, 23.1 µM; in the assay with OVCAR-4 ovarian it was 55.4 µM. Moreover, the TGI in the assay with K-562 leukemia is > 100 µM.
As for `CSCC(CO)NC(=O)/C=C/c1c(C)[nH]c(=O)[nH]c1=O` (stereo not drawn), the TGI in the assay on SNB-19 CNS, with SK-OV-3 ovarian, in the assay on SF-268 CNS, in the assay with SK-MEL-28 melanoma, in the assay on RPMI-8226 leukemia and with SF-539 CNS was > 875 µM in each case. The TGI with A498 renal is > 875 µM; with SNB-75 CNS it was > 875 µM; in the assay on HT29 colon, > 875 µM; with UACC-257 melanoma, > 875 µM; in the assay with HCT-15 colon, > 875 µM; in the assay with OVCAR-4 ovarian, 389 µM. The TGI in the assay on K-562 leukemia was > 875 µM.
For the compound `CC(=O)OC1CC(OC2C(O)CC(OC3C(O)CC(OC4CCC5(C)C(CCC6C5CCC5(C)C(C7=CC(=O)OC7)CCC65O)C4)OC3C)OC2C)OC(C)C1OC1OC(CO)C(O)C(O)C1O` (stereo not drawn), the TGI is 0.348 µM with SNB-19 CNS; 0.186 µM with SK-OV-3 ovarian; 0.129 µM in the assay on SF-268 CNS; 0.592 µM in the assay with SK-MEL-28 melanoma; 7.43 µM in the assay on RPMI-8226 leukemia; 0.0352 µM in the assay with SF-539 CNS. The TGI in the assay with A498 renal is 0.131 µM; in the assay on SNB-75 CNS, 0.249 µM; with HT29 colon, 0.171 µM; in the assay with UACC-257 melanoma, 0.422 µM; with HCT-15 colon, 0.0679 µM; with OVCAR-4 ovarian, 0.162 µM. The TGI in the assay on K-562 leukemia is > 100 µM.
Turning to `O=C(Sc1n[nH]c(=O)[nH]c1=O)c1cccc2nc3ccccc3nc12`, the TGI in the assay on SNB-19 CNS is > 100 µM; in the assay on SK-OV-3 ovarian, > 100 µM; with SF-268 CNS, > 100 µM; in the assay on SK-MEL-28 melanoma, 90.9 µM; in the assay with RPMI-8226 leukemia, > 100 µM; with SF-539 CNS, > 100 µM. Further, the TGI in the assay on A498 renal was > 100 µM; in the assay on HT29 colon, 61.9 µM; with UACC-257 melanoma, 39 µM; with HCT-15 colon it was > 100 µM; in the assay on OVCAR-4 ovarian it was > 100 µM; with K-562 leukemia, > 100 µM.
As for `CN(C)c1cccc(OC(=O)NCCCl)c1`, the TGI in the assay with SNB-19 CNS, with SK-OV-3 ovarian, in the assay on SF-268 CNS, with SK-MEL-28 melanoma, in the assay with RPMI-8226 leukemia and in the assay with SF-539 CNS was > 100 µM in each case. Besides, the TGI in the assay on A498 renal was 93.6 µM and > 100 µM; in the assay with SNB-75 CNS, > 100 µM; in the assay with HT29 colon, > 100 µM; in the assay with UACC-257 melanoma, > 100 µM; in the assay on HCT-15 colon, > 100 µM; in the assay on OVCAR-4 ovarian, > 100 µM. Moreover, the TGI with K-562 leukemia is > 100 µM. The GI50 in the assay on RPMI-8226 leukemia is > 100 µM; with A498 renal it was 13.9 µM; in the assay on SNB-75 CNS, > 100 µM.
For the compound `S=c1[nH]n2c(COc3ccc(Cl)cc3)nnc2s1`, the TGI with SNB-19 CNS, with SK-OV-3 ovarian, in the assay with SF-268 CNS, in the assay with SK-MEL-28 melanoma, with RPMI-8226 leukemia and with SF-539 CNS was > 100 µM throughout. Further, the TGI in the assay on SNB-75 CNS, in the assay with HT29 colon, with UACC-257 melanoma, in the assay on HCT-15 colon, in the assay on OVCAR-4 ovarian and in the assay on K-562 leukemia was > 100 µM each time.
Consider `CC1(C)N=C(c2ccccc2)SC12S[C@@H]1CCCC[C@H]1S2`, for which the TGI was 32.1 µM with SNB-19 CNS; > 100 µM in the assay with SK-OV-3 ovarian; > 100 µM in the assay with SF-268 CNS; > 100 µM with SK-MEL-28 melanoma; > 100 µM in the assay with RPMI-8226 leukemia; > 100 µM in the assay with SF-539 CNS. In addition, the TGI with A498 renal was 33.9 µM; with SNB-75 CNS, > 100 µM; in the assay with HT29 colon, > 100 µM; in the assay on UACC-257 melanoma it was > 100 µM; with HCT-15 colon, > 100 µM; in the assay on OVCAR-4 ovarian it was > 100 µM. Moreover, the TGI with K-562 leukemia was > 100 µM.
Consider `O=S(O)CCCSSSCCCS(=O)O`, for which the TGI in the assay on SNB-19 CNS, in the assay with SK-OV-3 ovarian, with SF-268 CNS, in the assay on SK-MEL-28 melanoma, in the assay with SF-539 CNS and in the assay with A498 renal was > 100 µM each time. The TGI in the assay on SNB-75 CNS, in the assay with HT29 colon, in the assay on UACC-257 melanoma, in the assay with OVCAR-4 ovarian and in the assay on K-562 leukemia was > 100 µM each time.
For `CO/C=C1\OC(=O)C=C1OC`, the TGI with SNB-19 CNS, with SK-OV-3 ovarian, in the assay with SF-268 CNS, in the assay with SK-MEL-28 melanoma, in the assay on RPMI-8226 leukemia and in the assay with SF-539 CNS was > 100 µM throughout. In addition, the TGI in the assay on A498 renal, in the assay with SNB-75 CNS, in the assay on HT29 colon, with UACC-257 melanoma, in the assay on HCT-15 colon and in the assay on OVCAR-4 ovarian was > 100 µM throughout. The TGI in the assay with K-562 leukemia was > 100 µM.
Take `c1ccc2c(c1)SP1Sc3ccccc3P21` (stereo not drawn): the TGI in the assay with SNB-19 CNS was > 31.6 µM; with SK-OV-3 ovarian, > 100 µM; in the assay with SF-268 CNS it was > 100 µM; in the assay with SK-MEL-28 melanoma, > 100 µM; with RPMI-8226 leukemia it was > 100 µM; in the assay with SF-539 CNS, > 100 µM. Moreover, the TGI in the assay with A498 renal, with SNB-75 CNS, with HT29 colon, in the assay on UACC-257 melanoma, in the assay with HCT-15 colon and with OVCAR-4 ovarian was > 100 µM each time. Further, the TGI in the assay on K-562 leukemia is > 100 µM.
`Cc1cccc2c1Sc1ccccc1C2NC(=O)CN(C)C` (stereo not drawn): the TGI with SNB-19 CNS, in the assay on SK-OV-3 ovarian, in the assay with SF-268 CNS, in the assay with SK-MEL-28 melanoma, with RPMI-8226 leukemia and in the assay with SF-539 CNS was > 100 µM throughout. In addition, the TGI in the assay on SNB-75 CNS was 86.7 µM; with HT29 colon it was > 100 µM; in the assay on UACC-257 melanoma, > 100 µM; with HCT-15 colon, > 100 µM; in the assay with OVCAR-4 ovarian, > 100 µM; in the assay on K-562 leukemia it was > 100 µM.
On to `c1csc(-c2ccc(CNc3c4ccccc4nc4ccccc34)cc2)c1`, for which the GI50 is 11 µM in the assay on SK-OV-3 ovarian; 1.69 µM in the assay with SK-MEL-28 melanoma; 1.85 µM in the assay on RPMI-8226 leukemia; 1.22 µM in the assay with A498 renal; 2.24 µM with SNB-75 CNS; 2 µM in the assay on UACC-257 melanoma. For the same compound, the GI50 with OVCAR-4 ovarian is 1.53 µM. Moreover, the TGI stood at 29.8 µM in the assay with SK-OV-3 ovarian; 3.28 µM in the assay on SK-MEL-28 melanoma; 4.8 µM with RPMI-8226 leukemia; 2.52 µM in the assay on A498 renal; 6.58 µM in the assay with SNB-75 CNS; 4.06 µM with UACC-257 melanoma. This compound also yielded a TGI in the assay on OVCAR-4 ovarian of 3.07 µM.
In the case of `CN(c1ccccc1)c1nc(=[N+]2CCCC2)ss1`, the TGI in the assay on SNB-19 CNS, with SK-OV-3 ovarian, with SF-268 CNS, in the assay with SK-MEL-28 melanoma, in the assay with RPMI-8226 leukemia and in the assay with A498 renal was > 100 µM each time. The TGI in the assay with SNB-75 CNS, in the assay with UACC-257 melanoma, in the assay on HCT-15 colon, in the assay with OVCAR-4 ovarian and in the assay with K-562 leukemia was > 100 µM throughout.
Regarding `NNC(=O)CCc1ccc2ccc3ccccc3c2c1`, the TGI with SNB-19 CNS, in the assay on SK-OV-3 ovarian, with SF-268 CNS, with SK-MEL-28 melanoma, with RPMI-8226 leukemia and with SF-539 CNS was > 100 µM in each case. The TGI with A498 renal, with HT29 colon, with UACC-257 melanoma, in the assay with HCT-15 colon, in the assay on OVCAR-4 ovarian and in the assay on K-562 leukemia was > 100 µM throughout.
